Test results published in the NIST ThermoML archive (doi:10.1021/je034177v).
Numbers after ± are expanded uncertainties.

Tests used:
[1] = 101 kPa, Liquid; for speed of sound: Pulse-echo method; for mass density: Vibrating tube method
[2] = molar heat capacity at constant pressure; conditions: 101 kPa, Liquid, Small sample (50 mg) DSC
[3] = xn = mol fraction of the nth substance listed; conditions: 101 kPa, Liquid, x2 = 0; for speed of sound: Pulse-echo method; for mass density: Vibrating tube method
[4] = molar heat capacity at constant pressure; xn = mol fraction of the nth substance listed; conditions: 101 kPa, Liquid, Small sample (50 mg) DSC, x2 = 0

ClCCCCCCl [1,5-dichloropentane]
Conditions	mass density, [1] [kg/m3]	molar heat capacity at constant pressure, [2] [J/K/mol]	speed of sound, [1] [m/s]
278.15 K	1115.28 ± 0.52	–	1376.6 ± 1.1
283.15 K	1110.26 ± 0.52	209.65 ± 3.2	1358.9 ± 1.1
288.15 K	1105.2 ± 0.52	210.73 ± 3.3	1341 ± 1.1
293.15 K	1100.16 ± 0.51	211.89 ± 3.3	1323.2 ± 1.1
298.15 K	1095.11 ± 0.51	212.94 ± 3.3	1305.4 ± 1.1
303.15 K	1090.07 ± 0.51	214.06 ± 3.3	1287.9 ± 1.1
308.15 K	1085.02 ± 0.51	215.21 ± 3.3	1270.3 ± 1.1
313.15 K	1079.97 ± 0.5	216.38 ± 3.4	1253 ± 1.1
318.15 K	1074.95 ± 0.5	217.56 ± 3.4	1235.8 ± 1.1
323.15 K	1069.89 ± 0.5	218.76 ± 3.4	1218.7 ± 1.1
328.15 K	1064.93 ± 0.5	–	1201.6 ± 1.1

ClCCCCCCCl [1,6-dichlorohexane]
Conditions	mass density, [1] [kg/m3]	molar heat capacity at constant pressure, [2] [J/K/mol]	speed of sound, [1] [m/s]
278.15 K	1082.7 ± 0.3	–	1387.4 ± 0.85
283.15 K	1077.97 ± 0.29	236.59 ± 3.7	1370 ± 0.85
288.15 K	1073.22 ± 0.29	237.9 ± 3.7	1352.3 ± 0.84
293.15 K	1068.47 ± 0.29	239.26 ± 3.7	1334.8 ± 0.84
298.15 K	1063.74 ± 0.29	240.6 ± 3.7	1317.3 ± 0.83
303.15 K	1059 ± 0.29	241.94 ± 3.8	1299.9 ± 0.83
308.15 K	1054.25 ± 0.29	243.37 ± 3.8	1282.7 ± 0.82
313.15 K	1049.5 ± 0.29	244.81 ± 3.8	1265.7 ± 0.82
318.15 K	1044.78 ± 0.28	246.28 ± 3.8	1248.7 ± 0.81
323.15 K	1040.03 ± 0.28	247.76 ± 3.8	1231.8 ± 0.81
328.15 K	1035.37 ± 0.28	–	1215.1 ± 0.8

CCCCCCCCCCCC [dodecane]
Conditions	mass density, [1] [kg/m3]	molar heat capacity at constant pressure, [2] [J/K/mol]	speed of sound, [1] [m/s]
278.15 K	759.56 ± 0.34	–	1357 ± 1.1
283.15 K	755.96 ± 0.34	368.47 ± 5.7	1337.4 ± 1.1
288.15 K	752.36 ± 0.34	370.48 ± 5.7	1317.6 ± 1
293.15 K	748.74 ± 0.34	372.74 ± 5.8	1298 ± 1
298.15 K	745.14 ± 0.34	375.04 ± 5.8	1278.5 ± 1
303.15 K	741.52 ± 0.34	377.43 ± 5.8	1259.2 ± 1
308.15 K	737.88 ± 0.34	380.02 ± 5.9	1240 ± 1
313.15 K	734.24 ± 0.34	382.73 ± 5.9	1221 ± 1
318.15 K	730.6 ± 0.34	385.48 ± 6	1202.3 ± 1
323.15 K	726.95 ± 0.33	388.29 ± 6	1183.6 ± 1
328.15 K	723.29 ± 0.33	–	1165.1 ± 1

CCCCCCCCCCCC [dodecane] + ClCCCCCCCl
Conditions	mass density, [3] [kg/m3]	molar heat capacity at constant pressure, [4] [J/K/mol]	speed of sound, [3] [m/s]
278.15 K	759.56 ± 0.34	–	1357 ± 1.1
283.15 K	755.96 ± 0.34	368.47 ± 5.7	1337.4 ± 1.1
288.15 K	752.36 ± 0.34	370.48 ± 5.7	1317.6 ± 1
293.15 K	748.74 ± 0.34	372.74 ± 5.8	1298 ± 1
298.15 K	745.14 ± 0.34	375.04 ± 5.8	1278.5 ± 1
303.15 K	741.52 ± 0.34	377.43 ± 5.8	1259.2 ± 1
308.15 K	737.88 ± 0.34	380.02 ± 5.9	1240 ± 1
313.15 K	734.24 ± 0.34	382.73 ± 5.9	1221 ± 1
318.15 K	730.6 ± 0.34	385.48 ± 6	1202.3 ± 1
323.15 K	726.95 ± 0.33	388.29 ± 6	1183.6 ± 1
328.15 K	723.29 ± 0.33	–	1165.1 ± 1

CCCCCCCCCCCC [dodecane] + ClCCCCCCl
Conditions	mass density, [3] [kg/m3]	molar heat capacity at constant pressure, [4] [J/K/mol]	speed of sound, [3] [m/s]
278.15 K	759.56 ± 0.34	–	1357 ± 1.1
283.15 K	755.96 ± 0.34	368.47 ± 5.7	1337.4 ± 1.1
288.15 K	752.36 ± 0.34	370.48 ± 5.7	1317.6 ± 1
293.15 K	748.74 ± 0.34	372.74 ± 5.8	1298 ± 1
298.15 K	745.14 ± 0.34	375.04 ± 5.8	1278.5 ± 1
303.15 K	741.52 ± 0.34	377.43 ± 5.8	1259.2 ± 1
308.15 K	737.88 ± 0.34	380.02 ± 5.9	1240 ± 1
313.15 K	734.24 ± 0.34	382.73 ± 5.9	1221 ± 1
318.15 K	730.6 ± 0.34	385.48 ± 6	1202.3 ± 1
323.15 K	726.95 ± 0.33	388.29 ± 6	1183.6 ± 1
328.15 K	723.29 ± 0.33	–	1165.1 ± 1
